Reference: patent publication US4017487A, “7β-(D-5-amino-5-carboxyvaleramido )-7-methoxy-3-substituted-3-cephem-4-carboxylic acid antibiotics” (priority 1974, dated 1977)
Counter-ions that a name gives are not always drawn. Like-named read-outs stand apart in the source and are kept apart here.

Experiments:
penicillinase = details: cited from earlier work
Vibrio percolans MB-1272 = assay: Disc-plate assay using Vibrio percolans
Proteus vulgaris MB-838 = assay: Disc-plate assay using Proteus vulgaris
[1] = tested on: gram-negative and gram-positive infections; assay: In vivo protection against infection (general statements); design: species or system mice
Description: (§1) Methods: The method employed in this characterization is as follows: Female white Swiss mice, average weight 20-23 grams, were infected intraperitoneally with 3-20 times the number of organisms calculated to be lethal for 50% of the infected control animals (3-20 LD50 doses). At the time of infection and again six hours later, therapy was given by the designated route. Controls of the virulence of the culture and the toxicity of the antibiotic for uninfected mice were included in the tests. Seven days after infection the test was considered complete and the amount of the antibiotic (I) that would be required to protect 50% of the infected and treated animals was calculated by the method of Knudsen and Curtis; J. Amer. Stat. Assoc. Vol. 42: page 282 (1947).
The method employed in these studies is the same as described above with regard to the in vivo characterization of 810A.

[2] = tested on: degradative bacteria / enzymatic degradation; assay: Resistance to enzymatic degradation / bacterial inactivation (general statements); assay type: biochemical; details: compared with cephalosporin C
Description: Bacterial Inactivation with 810A: An in vitro study was designed to determine the resistance of Antibiotic 810A, to bacterial inactivation as compared with cephalosporin C, cephaloridine and cephalothin.

Proteus morganii 3202 = assay: In vivo mouse protection test; design: species or system white Swiss mice; details: 4000 mg. × 2 doses
Description: as §1
The method employed in these studies is the same as described above with regard to the in vivo characterization of 810A. The results of these tests are described below in Table XIb:
Administration was by subcutaneous injection. At the completion of the test period, usually seven days after administration, the amount of product required to protect 50% of the mice (ED50) from this otherwise fatal injection was calculated: […]

[3] = tested on: Aerobacter cloacae (MB-2646); assay: Bacterial inactivation, cell-free extract; assay type: biochemical; details: for Antibiotic Activity Remaining: starting 250 μg./ml.
Method: The ability of Antibiotic 810A and cephalosporin C to withstand the degradative effect of the culture Aerobacter cloacae (MB-2646) was also determined. This culture is gram-negative and resistant to cephalosporin C. […] The source of the inactivating substance is a 1:160 dilution of the filtrate of an 18 hour 37° C. shake culture of Aerobacter cloacae MB-2646 in nutrient broth containing 0.2% yeast extract. Table XIV, infra, indicates the percent inactivation of Antibotic 810A, cephalothin, cephaloridine and cephalosporin C on Vibrio percolans (MB-1272) via this method:
Using the same assay procedure as described above, Table XV, infra, indicates the relative resistance of Antibiotic 810A to enzymatic inactivation by Aerobacter cloacae. The starting concentration is 250 μg./ml. Results are expressed in μg./ml.

Proteus morganii 356 [4] = assay: In vivo mouse protection test, cephalosporin-resistant clinical isolate; design: species or system white Swiss mice; details: s.c. × 2 doses
Description: as §1
In addition to the aforementioned in vivo trials of the product, a clinical isolate of Proteus morganii 356 which is resistant to cephalosporins and capable of degrading cephalosporin C, was employed in a mouse protection test performed in the same manner as reported above.

[5] = tested on: Alcaligenes faecalis (MB-9); details: alcaligenes faecalis cells, 3 h
[6] = tested on: gram-negative and gram-positive bacteria; assay: Antibacterial activity (general statements); assay type: cell-based
Bacillus subtilis = assay: In vitro disc-plate agar diffusion, antibacterial spectrum (7 mm = no zone); assay type: cell-based; details: 16 h, read-out: Inhibition Zone Diameter
Proteus vulgaris = assay: as above; assay type: cell-based; details: 16 h, read-out: Inhibition Zone Diameter
Escherichia coli = assay: In vitro disc-plate agar diffusion, antibacterial spectrum (7 mm disc; 7 mm = no inhibition zone); assay type: cell-based; details: 16 h, 192 μg/ml, inoculum 5 ml/150 ml, 25° C., read-out: Inhibition Zone Diameter
Bacillus sp. = assay: In vitro disc-plate agar diffusion, antibacterial spectrum (7 mm = no zone); assay type: cell-based; details: 16 h, 192 μg/ml, inoculum 5 ml/150 ml, 25° C., read-out: Inhibition Zone Diameter
Escherichia coli W-MB-60 = assay: Special effects spectrum in vitro study, disc-plate (7 mm = no zone); assay type: cell-based; details: WMB60, 16 h
Salmonella gallinarum = assay: In vitro disc-plate agar diffusion, antibacterial spectrum (7 mm = no zone); assay type: cell-based; details: Salmonella enterica, 16 h, 192 μg/ml, inoculum 10 ml/150 ml, 25° C., read-out: Inhibition Zone Diameter
Xanthomonas vesicatoria = assay: as above; assay type: cell-based; details: 16 h, read-out: Inhibition Zone Diameter
Escherichia coli strains = assay: microbe, parasite or virus in culture; assay type: cell-based; details: 16 h, 192 μg/ml, Sensitive parent, 25° C., read-out: Inhibition Zone Diameter
[7] = tested on: Alcaligenes viscosus (MB-12); assay: Bacterial inactivation, washed bacterial cells; details: 4 hour incubation; assayed on B. subtilis (MB-964) plates
Proteus morganii 356 [8] = assay: Bacterial inactivation; details: four hours; B. subtilis (MB-964); 240 min
[9] = tested on: gram-negative and gram-positive bacteria; details: cited from earlier work
Proteus morganii 251 = assay: Bacterial inactivation; details: four hours; B. subtilis (MB-964); 240 min
Proteus mirabilis 241 = assay: Bacterial inactivation; details: four hours; B. subtilis (MB-964); 240 min
[10] = tested on: Alcaligenes faecalis (MB-9); details: known property of the organism; cited from earlier work
Escherichia coli 236 = assay: Bacterial inactivation; details: four hours; B. subtilis (MB-964); 240 min
[11] = 2 hour incubation, cell-free extract, assayed on V. percolans (MB-1272) plates
[12] = 2 hour incubation, assay organism B. subtilis 964
[13] = 2 hour incubation, assay organism V. percolans 1272

CC1(C)S[C@@H]2[C@H](NC(=O)Cc3ccccc3)C(=O)N2[C@H]1C(=O)O [Penicillin G]
resistance to penicillinase (penicillinase): in the presence of penicillinase it is degraded to a form which is ineffective against most pathogens

CO[C@@]1(NC(=O)CCC[C@@H](N)C(=O)O)C(=O)N2C(C(=O)O)=C(C)CS[C@@H]21 [7β-(D-5-amino-5-carboxyvaleramido)-3-methyl-7-methoxy-3-cephem-4-carboxylic acid]
bioactivity (Vibrio percolans MB-1272; 50 μg/ml): Inactive

COC(=Cc1ccc(O)cc1)C(=O)OCC1=C(C(=O)O)N2C(=O)[C@](NC(=O)CCC[C@@H](N)C(=O)O)(OC)[C@H]2SC1 [7β-(D-5-amino-5-carboxyvaleramido)-3-(α-methoxy-p-hydroxycinnamoyloxymethyl)-7-methoxy-3-cephem-4-carboxylic acid]
IC (25 mm zone) (Proteus vulgaris MB-838; Proteus vulgaris, MB838, read-out: bio-potency (concentration for a 25 mm. zone)): 18 µg/mL

COC(=Cc1ccc(OS(=O)(=O)O)cc1)C(=O)OCC1=C(C(=O)O)N2C(=O)[C@](NC(=O)CCC[C@@H](N)C(=O)O)(OC)[C@H]2SC1 [Ic, 7β-(D-5-amino-5-carboxyvaleramido)-3-(α-methoxy-p-sulfooxycinnamoyloxymethyl)-7-methoxy-3-cephem-4-carboxylic acid]
Total Biological Units (Proteus vulgaris MB-838; Example 6 separation): 10,000 units
in vivo protection / activity ([1]; mouse, in vivo): when administered intraperitoneally, it is effective against a variety of gram-negative and gram-positive infections
oral protection against infections ([1]; oral): protects against infections due to Proteus vulgaris
resistance to enzymatic degradation [2]: more resistant to enzymatic degradation than cephalosporin C

CC(=O)OCC1=C(C(=O)O)N2C(=O)[C@@H](NC(=O)Cc3cccs3)[C@H]2SC1 [Cephalothin]
protection against Proteus morganii 3202 (Proteus morganii 3202): failed to protect
percent inactivation [3, 11]: 66%
Antibiotic Activity Remaining [3, 12]: 140 µg/mL
Antibiotic Activity Remaining [3, 13]: 85 µg/mL
ED50 by Subcutaneous Route × 2 Doses (average of Two Trials) (Proteus morganii 356 [4]): > 20,000 μg.
percent inactivation [5]: 50%

CO[C@@]1(NC(=O)CCC[C@@H](N)C(=O)O)C(=O)N2C(C(=O)O)=C(CN=[N+]=[N-])CS[C@@H]21 [7β-(D-5-amino-5-carboxyvaleramido)-3-(azidomethyl)-7-methoxy-3-cephem-4-carboxylic acid]
bioactivity ([6]; several strains of bacteria): possessed bioactivity against several strains of bacteria

CO[C@@]1(NC(=O)CCC[C@@H](NC(=O)OC(C)(C)C)C(=O)O)C(=O)N2C(C(=O)O)=C(COC(N)=O)CS[C@@H]21 [7β-(D-5N-tert-tertiary-butoxycarbonylamino-5-carboxyvaleramido)-3-(carbamoyloxymethyl)-7-methoxy-3-cephem-4-carboxylic acid]
biopotency relative to starting material ([6]; relative to disodium salt of 842A): one-tenth

CO[C@@]1(NC(=O)CCC[C@@H](N)C(=O)O)C(=O)N2C(C(=O)O)=C(COC(N)=O)CS[C@@H]21 [Sodium Salt]
zone of inhibition at 192 µg/mL (Bacillus subtilis): 18 mm
zone of inhibition at 192 µg/mL (Proteus vulgaris): 24 mm
zone of inhibition at 192 µg/mL (Escherichia coli): 18 mm
zone of inhibition at 192 µg/mL (Bacillus sp.): 7 mm
zone of inhibition at 192 µg/mL (Escherichia coli W-MB-60; pH 9, read-out: Inhibition Zone Diameter, 192 μg/ml, 0.1 M Phosphate Buffer pH 9): 24 mm
zone of inhibition at 192 µg/mL (Escherichia coli W-MB-60; read-out: Inhibition Zone Diameter, 192 μg/ml, Cation Exchange Resin (Dow ET 91) 1%): 18 mm
zone of inhibition at 192 µg/mL (Escherichia coli W-MB-60; read-out: Inhibition Zone Diameter, 192 μg/ml, Control (no additions)): 18 mm
concentration giving a 25 mm. zone (Vibrio percolans MB-1272; 25 mm. zone, listed as Sodium Salt of 842A): 5 µg/mL
zone of inhibition at 192 µg/mL (Salmonella gallinarum): 25 mm
zone of inhibition at 192 µg/mL (Xanthomonas vesicatoria): 17 mm
zone of inhibition at 192 µg/mL (Escherichia coli strains): 18 mm

O=C(Cc1cccs1)N[C@@H]1C(=O)N2C(C(=O)[O-])=C(C[n+]3ccccc3)CS[C@H]12 [Cephaloridine]
protection against Proteus morganii 3202 (Proteus morganii 3202): failed to protect
Antibiotic Activity Remaining [3, 12]: < 10 µg/mL
Antibiotic Activity Remaining [3, 13]: < 10 µg/mL
percent inactivation ([3]; aerobacter cloacae culture filtrate, 2 h): 96%
ED50 by Subcutaneous Route × 2 Doses (average of Two Trials) (Proteus morganii 356 [4]): 9,270 μg.

CC(=O)OCC1=C(C(=O)O)N2C(=O)[C@@H](NC(=O)CCC[C@@H](N)C(=O)O)[C@H]2SC1 [Cephalosporin C]
percent inactivation [3, 11]: 96%
percent inactivation [7]: > 99%
percent inactivation (Proteus morganii 356 [8]): > 99%
antibacterial activity [9]: only moderately active
antibacterial activity ([9]; listed as cepahlosporin C): relatively low antibacterial activity
percent inactivation (Proteus morganii 251): > 99%
percent inactivation (Proteus mirabilis 241): 72%
resistance to penicillinase (penicillinase): inherent resistance to penicillinase
inactivation of cephalosporin C [10]: completely inactivate
percent inactivation (Escherichia coli 236): > 99%
